The values below come from patent publication US20040072790A1, “Safe natural pharmaceutical composition for treating cancer” (priority 2002, published 2004).

The subject of one series is L615 transplanted tumor. As to the kind of experiment: Growth of transplanted tumor in mice. The note with it: intraperitoneally, other drugs 20 mg/kg, sacrificed on the 12th day. It is filed as in vivo. How it is done: Male mice, weight 20-22 g, were used in the experiment 1×10^7 tumor cells were injected to mouse and other drugs injected intraperitoneally began second day. All mice were sacrificed on the 12th day, isolated the tumor and weighed and calculated the inhibition rate of tumor weight
The effect of other drugs and HHT on the growth of animal transplanted tumor as illustrated by the Table 6 20 mg/kg of other drugs could inhibit the growth of L615 transplanted tumor.

The subject of a further series is human cancer cells. Put plainly: Inhibition of tumor cell proliferation. Type of series: cell-based. Conditions: 1 μg/ml drug, 72 hours. How it is done:
Human tumor cell lines Hela leukemia HL-60, malignant melanocarcinoma B16, oral epidermoid carcinoma (KB), lung carcinoma (A549), breast carcinoma MCF-7, adenocarcinoma of stomach Animal tumor cell lines Walker carcinoma, LLC-WRC-256, malignant melanoma (RMMI 1846), 3T3, and S-180 sarcoma (CCRF-180). All lines were routinely cultured in the RPMI1640 medium supplemented 20% fetal calf serum. The experiment was carried out in 96 microplate, each well had 5×10^5 cells and given desired concentration of 1 μg /ml (1×10^−6 g/ml) drug Then the plate was incubated at 37° C. in an atmosphere of humidified air enriched with 5 percent carbon dioxide for 72 hours
Inhibition percent rate of tumor cell proliferation was obtained according to the bellow formula [formula]

Another series deals with carcinogen-DNA binding. As to the kind of experiment: Inhibition of carcinogen-DNA binding. It is filed as cell-based. Here is the method:
Cells were maintained in 75-cm^2 tissue culture flask with media supplemented with retinoic acid (0 1 μg/ml) and epinephrine (0 5 μg/ml) The cells were passage when they reached approximately 80% confluence and were maintained at 37° C. in 5% CO2. Cells were plated at a density of 5×10^5 cells/well in 6-well tissue culture plates and allowed to incubated for 18 h at 37° C. in 5% CO2 Following incubation, the DNA was harvested and resuspended in Tris-EDTA buffer RNA was removed by treating with RNase T1 and RNase A at 37° C. for 1 h. An aliquot was used for determining the DNA content by the absorbency at 260 nm, and the rest of the sample was used to determine the radioactivity; the percentage inhibition of carcinogen-DNA binding was determined by measuring the cpm/mg of DNA in the carcinogen

Another series concerns tyrosine kinase (TK). As to the kind of experiment: Tyrosine kinase (TK) assay of HL-60 leukemia cells. It is filed as cell-based, human. Here is the method:
Tyrosine kinase (TK) Assay. TK was measured by a modification of the method of Braun et al Briefly, H-60 leukemia cells were plated at a density of 5×10^5 cells in […], and divided control and treatments groups for incubation 24 hours at 37° C. with 5% CO2. The cells were collected by scraping, washed twice with phosphate-buffered saline, and resuspended at density of 10^6 cells/ml in 5 mM HEPESs buffer (pH 7.4). The cells were then resuspended in 1 ml of buffer containing 5 mM HEPES (pH 7.6), 1 mM MgCl2 and ImM EDTA, then placed on ice bath The cell membrane was disrupted by ultra sound and centrifuged at 1,000×g for 10 minutes The supernatant was ultra centrifuged at 30,000×g for 30 minutes at 4° C. The pellet was resuspended in 0 3 ml of buffer containing 25 mM HEOES, centrifuged at 12,000×g for 5 minutes The resulting supernatant was used for TK assay. Content of protein was determined 10 μg of protein placed in 20 mM HEPES (pH 7 6), 15 mM MgCl2, 10 nM ZnCl2 and 5% (v/v) nonidet P-40, with or without substrate [glutamic acid (GT), mg/ml]. After 5 minutes incubation at 25° C., the reaction was initiated by the addition of 25 μM [γ^32P] ATP (3 ci/mmol) After 10 minutes, the reaction was stopped by the addition of 20 mM cold ATP. 50 μl of the mixtures were spotted on glass microfiber filter discs and washed three times with cold trichloroacetic acid (TCA), contained 1 mM sodium pyrophosphate Air dried. Radioactivity was determined by liquid scintillation spectrometry. The net TK activity was determined after correcting for endogenous TK activity

For the next series, the system named is HL-60 cells. Put plainly: Diversion (differentiation) of human leukemic cells, NBT reduction. It is filed as cell-based. The note with it: IND, MAT, YLE, LIK, APN and PYE 50 ng/ml, higher NBT (%) means higher normal cells. How it is done: HL-60 cells were established from a patient with acute myeloid leukemia. The cells were cultured in culture flasks with RPMI plus 10% FCS
Differentiation of HL-60 cells was assessed by their abilities to produced superoxide as measured by reduction of NBT, by NSE staining and by morphology as detected on cytospin preparations stained with Diff-Quick stain Set, and by analysis of membrane-bound differentiation markers with two-color immunofluorescence Briefly, cells were preincubated at 4° C. for 60 min in 10% human AB serum and then with FITC-conjugated mouse IgGI isotype control Analysis of fluorescence was performed on a flow cytometer.
NBT % indicated percentage of normal cells

For series [1], the system named is NNK-induced pulmonary adenomas. Put plainly: NNK-induced lung tumorigenesis. It is filed as in vivo. The note with it: mice, drug by injection 20 mg/kg daily, 10 μmol NNK i.p., sixteen weeks. Here is the method: Every group had 20 mice For treatment group, each mouse was gave Drug by injection at dose of 20 mg/kg daily. For control group, each mouse was gave same volume of physiological saline Three days later, mice were gave 10 μmol NNK (in 0.1 ml saline) by i.p injection. Sixteen weeks after these treatments the mice were killed and pulmonary adenomas were counted The statistical significance of bioassay data was determined by student's test.

For another series, the system named is gastric cancer cells. Put plainly: Diversion of gastric cancer cells, NBT. Type of series: cell-based. Here is the method:
The gastric cancer cells and normal cells were cultured in PRMI 1640 medium supplement with 10% FCS serum Other method is similar to example 10

The subject of series [2] is lipid peroxidation, liver microsome. As to the kind of experiment: Lipid peroxidation in liver microsome (MDA, TBA). Type of series: biochemical, rats. Conditions: drug 50 μM, 37° C. Here is the method:
The liver microsome (1 mg protein) in 0.15 M KCl, 0 25 M Tris-HCl buffer, pH 7.5, 2 mμ ADP, 10 μM FeSO4 and Drug B (50 μM) were incubated at 37° C. for 5 min The reactions were terminated after 30 min by added 2 ml thiobarbituric acid (TBA) and content of the malondialdehyde (MDA) formed was determined.
In general terms: Liver microsomes are a subcellular fraction often used to study metabolism.

Series [3] concerns Human leukemia cells (HL-60). As to the kind of experiment: Apoptosis of human leukemia cells. Type of series: cell-based. How it is done: Human leukemia cells (HL-60) were grown in RPMI Medium 1640 supplemented with 10% (v/v) heat-inactivated FBS (56° C. for 30 min) at 37° C. in a humidified 95% air/5% CO2 atmosphere. Cells were seeded at a level of 2×10^5 cells/ml Cells were allowed to attain a maximum density of 1 2×10^6 cells/ml before being passed by dilution into fresh medium to a concentration of 2×10^5 cells/ml Cell pellets containing 5×10^6 cells were fixed with 2 5% glutaraldehyde in cacodylate buffer (pH 7 4), dehydrated through graded alcohol, and infiltrated with LX-112 epoxy resin. After overnight polymerization at 60° C. 1-μm sections were cut with glass knives using a microtome.
(§1) Cells ([…] were incubated in 10 ml IMDM plus […] heat-inactivated fetal calf serum. Samples were incubated for 24 hours with various concentrations of drugs Control samples received the same amount of media, without drug addition After 24 hours of incubation the samples were pelleted and fixed in ethanol 705 for 15 minutes at 4° C., after three washes in PBS, the cells were treated with PNase I 0.5 mg/ml for 15 minutes at 37° C. The cells were harvested by centrifugation and resuspended in 50 μg/ml propidium iodide in PBS. Analysis (upon acquisition of 10,000-20,000 events) was performed on a FACscan flow cytometer with the FL2 detector in logarithmic mode, using Lysis II software (Becton Dickinson). Apoptotic cells were located in the hypodiploid region of the histogram, due to chromosome condensation and fragmentation
(§2) For evaluation of apoptosis by flow cytometry, cells were fixed and permeabilized in 1% paraformaldehyde and ice-cold 70% ethanol Digoxigenin-dUTP was incorporated at the 3′OH ends of the fragmented DNA in the presence of terminal deoxynucleotidyltranserase, and the cells were incubated with FITC-labeled anti-digoxigenin-dUTP and with propidium iodide. Green (apoptotic cells) and orange (total DNA) fluorescence were measured with a FACScan flow cytometer and analyzed with LYSIS It and CELLFIT programs Data were analyzed by Student's t-test P values were considered significant when <0.05.
(§3) Untreated and treated HL-60 cells collected by centrifugation, washed in phosphate buffered saline and re-suspended at a concentration of 5×10^6 cells and 0.1% RNase A. The mixture was incubated at 37° C. for 30 min and then incubated for an additional 30 min at 37° C. Buffer was added and 25 μl of the tube content transferred to the Horizontal 1.5% agarose gel electrophoresis was performed at 2 V/cm DNA in gels visualized under UV light after staining with ethidium Bromide (5 μg/ml)
DNA fragmentation assays DNA cleavage was performed, quantitation of fractional solubilized DNA by diphenylamine assay and the percentage of cells harboring fragmented DNA determined by in labeling techniques For the diphenylamine assay, 5×10^6 cells were lysed in 0 5 mL lysis buffer (5 mmol/L Tris-HCI, 20 mmol/L DTA, and 0 5% Triton X-100, pH 8 0) at 4° C. […] DNA was precipitated with 0.5 N perchloric acid and quantitated using diphenylamine reagent. The cell cycle distribution was determined 4 hours after addition of drug and represents mean±SD of 5 independent experiments
(§4) Apoptosis of HL-60 cells was assessed by changes in cell morphology and by measurement of DNA nicks using the Apop Tag Kkt (Oncor, Gaithersburg, MD). […] These changes are detected on cytospin preparations stained with Diff-Quick Stain Set Apoptotic cells were enumerated in a total of about 300 cells by light microscopy

The test system of a further series is Normal cells. As to the kind of experiment: Apoptosis of normal cells. Type of series: cell-based. Here is the method: as §1, §2, §3
DNA fragmentation assays DNA cleavage was performed, quantitation of fractional solubilized DNA by diphenylamine assay and the percentage of cells harboring fragmented DNA determined by in labeling techniques For the diphenylamine assay, 5×10^6 cells were lysed in 0 5 mL lysis buffer (5 mmol/L Tris-HCI, 20 mmol/L DTA, and 0 5% Triton X-100, pH 8 0) at 4° C. Lysates were centrifuged (15,000 g) for separation of high molecular weight DNA (pellet) and DNA cleavage products (supernatant). DNA was precipitated with 0.5 N perchloric acid and quantitated using diphenylamine reagent. The cell cycle distribution was determined 4 hours after addition of drug and represents mean±SD of 5 independent experiments
as §4

Series [4] can be described thus: Toxic doses for mice (repeated injection). The note with it: 38 normal mice, injection 2 mg/kg/day×5, observation period of 5 days. Type of series: in vivo. Here is the method: Toxic doses for dogs 0 16 mg/kg/day×7 of HHT was established as the toxic doses. Toxic doses for mice In 38 normal mice after injection of HHT of 2 mg/kg/day×5 with the observation period of 5 days about 50% of the mice died.

As for Homoharringtonine [HHT], in the series with L615 transplanted tumor, the “Inhibition (%) of transplanted tumor (tumor weight)” value is given as 68 ± 7.2%. Also, in the series on human cancer cells, the “Inhibition (%) of growth of cancer cells” value worked out at 73.8 ± 8.1%. In the series on carcinogen-DNA binding, the “Inhibition (%) of carcinogen-DNA binding” value was determined as 56.8 ± 6.2%. Also, the “inhibition of TK activity” value with tyrosine kinase (TK) (HL-60, 10^−8 M) is 12.2%. For the same substance, the “% of control activity (TK)” value in the series on tyrosine kinase (TK) (HL-60 leukemia cells, 10^−6 M, 24 hours) amounted to 0.6%; in the series with tyrosine kinase (TK) (HL-60 leukemia cells, 10^−7 M, 24 hours), 21.5 ± 4.0%; with tyrosine kinase (TK) (HL-60 leukemia cells, 10^−8 M, 24 hours), 87.8 ± 12%; with tyrosine kinase (TK) (Table 8, HHT alone or with other drug, concentration not given), 21.5 ± 4.0%. In addition, the results for the “NBT (%)” value in the series with HL-60 cells and in the series on gastric cancer cells were 65 ± 7.0 % and 58 ± 8.9 %, respectively. Moreover, in series [1], the “Tumor incidence (%)” value came to 35.8 ± 4.5%. Moreover, the “Nmoles MDA/mg protein” value in series [2] is on record as 8.5 ± 1.0 Nmoles MDA/mg protein. Further, the “Apoptosis (%)” value in [3] (Human leukemia cell, HHT 50 ng/ml alone or with 50 ng/ml of the other drug (Table 4)) is 42.8 ± 5.2%; in series [3] (Human leukemia cells, HHT 10 ng/ml), 33.8 ± 4.8 %; in series [3] (Human leukemia cells, HHT 50 ng/ml), 42.8 ± 5.2 %; in series [3] (Human leukemia cells, HHT 100 ng/ml), 60.2 ± 8.9 %; in [3] (Human leukemia cells, HHT 500 ng/ml) it was 92.0 ± 10.8 %; with Normal cells (HHT 10 ng/ml) it was 16.5 ± 2.0 %. In addition, the “Apoptosis (%)” value in the series with Normal cells (HHT 50 ng/ml) was 18.5 ± 2.5 %; in the series with Normal cells (HHT 50 ng/ml alone or with 50 ng/ml of the other drug (Table 4)), 18.5 ± 2.5%; in the series with Normal cells (HHT 100 ng/ml), 22.0 ± 3.5 %; in the series on Normal cells (HHT 500 ng/ml), 29.5 ± 5.2 %. In addition, the mice died entry in series [4] is “about 50%”.
